# What was measured:
# mouse [1] = test: Conditioned inhibition, 4 plate test, mouse; format: in vivo, mouse (male, Swiss NMRI stock)
# Protocol: (§1) All the experiments described below were carried out using male rats weighing from 170 to 220 g (Wistar Af stock) and male mice weighing from 18 to 23 g (Swiss NMRI stock).
# A simple conditioned inhibition test was used, the 4 plate test (ARON an Coll, Neuropharmacology 1971, 10, 459-470).
# [2] = Acute toxicity in the rat; format: in vivo; conditions: in vivo
# Protocol: as §1
# (§2) All the experiments took place in a laboratory with a constant temperature (22° ± 1° C).
# (§3) All the experiments were carried out blind (without the experimenter knowing, at the time of the tests, which animals had received the substance presumed active).
# (§4) Unless otherwise stated, 10 animals were always used per point.
# (§5) In the rat, with either oral or intraperitoneal administration, the LD50 of 6-methyl 3,4-diphenyl-3,4,5,6-tetrahydro 2-pyrone was over 300 mg/kg.
# rat [3] = test: Acute toxicity in the rat; format: in vivo
# Protocol: as §1, §2, §3, §4, §5
# rat [4] = test: Effects of barbiturate hypnotics, rat; format: in vivo, rat (male, Wistar Af stock); conditions: rat, 16, 32 or 64 mg/kg oral, with pentabarbitone or barbitone sodium
# Protocol: as §1
# animals [5] = test: animal or person; format: in vivo, rat and mouse
# Protocol: an increase in the activity and alertness of animals without abnormal behaviour and particularly stereotyped movements ever appearing. Increased activity and alertness were found in both the rat and the mouse by observing the animals, measuring their motor activity and measuring their exploration of a board containing holes and the shortening of the reaction time of mice on a hot-plate. The increase is marked (according to the tests) from doses of 16 to 32 mg/kg given orally; it takes place rapidly after administration and lasts about 2 hours. These doses are far from the toxic level (ratio LD50/ED 50 approximately 20/1 in the mouse and over 10/1 in the rat);
# rats [6] = test: Test for antireserpine action, rats; format: in vivo, rat (male, Wistar Af stock); conditions: rats, 8, 16, 32 and 64 mg/kg oral; reserpine 2.5 mg/kg i.p. 4 hours before
# Protocol: as §1
# rat [7] = test: Motor activity in the rat (actimeters with photoelectric cells); format: in vivo, rat (male, Wistar Af stock)
# Protocol: as §1
# Motor activity was determined with the aid of actimeters with photoelectric cells described by Tedeschi and Coll (J. Pharm. sci. 1964, 53, 1046-1049). A minimum of 10 animals were always used per point. They show a large increase in the motor activity of rats, which becomes significant from a dose of 32 mg/kg given orally.
# rat [8] = test: Avoidance conditioning in the rat (shuttle-box); format: in vivo, rat (male, Wistar Af stock); conditions: 64 mg/kg oral, 8 animals
# Protocol: as §1
# The avoidance conditioning was studied in the rat placed in a shuttle-box (with 2 compartments) (of. BOISSIER and SIMON: Therapie 1968, 23, 1267-1276).
# rat [9] = test: Apomorphine stereotypy test; format: in vivo, rat (male, Wistar Af stock); conditions: rat, 32, 64 or 128 mg/kg oral 60 min before apomorphine 0.5 mg/kg s.c.
# Protocol: as §1
# rats [10] = test: Test of anticataleptic action (prochlorperazine catalepsy); format: in vivo, rat (male, Wistar Af stock); conditions: 16 or 64 mg/kg i.p. or oral, prochlorperazine 8 mg/kg i.p., homolateral paws, Buddha or elevator test
# Protocol: as §1
# mouse [11] = test: Motor activity in the mouse (actimeters with photoelectric cells); format: in vivo, mouse (male, Swiss NMRI stock); conditions: for motor activity relative to the control group: 64 mg/kg oral
# Protocol: as §1
# Motor activity was determined using actimeters with photoelectric cells (Boissier and Simon, Arch. int. Pharmacodyn., 1965, 158, 212-221). A minimum of 12 animals were always used per point.
# a. MDTP is administered orally at variable times before activity is measured.
# b. When administered orally 30 minutes before the actograph is taken, MDTP increases the motor activity of mice.
# c. When administered orally immediately before the actograph is taken, MDTP (128 mg/kg) brings a marked increase in the motor activity of mice up to the 150th minute (Table I).
# rat [12] = test: Amphetamine stereotypy test; format: in vivo, rat (male, Wistar Af stock); conditions: rat, 32, 64 or 128 mg/kg oral 60 min before amphetamine 2 mg/kg i.p.
# Protocol: as §1
# mouse [13] = test: Effects of barbiturate hypnotics, mouse; format: in vivo, mouse (male, Swiss NMRI stock); conditions: mouse, 16, 32 or 64 mg/kg oral, with pentabarbitone or barbitone sodium
# Protocol: as §1
# animals [14] = test: Test with the board containing holes; format: in vivo
# Protocol: The method and apparatus described by BOISSIER and SIMON (Physiol. Behav. 1967, 2, 444-448) were used. During these experiments 15 animals were used per batch (except that 30 were used for the control group and 30 for the dose of 64 mg/kg).
# [15] = 16 mg/kg orally 15 min before test
# [16] = 32 mg/kg orally 15 min before test
# [17] = 64 mg/kg orally 15 min before test
# [18] = 128 mg/kg orally 15 min before test
# [19] = 16 mg/kg orally 60 min before test
# [20] = 32 mg/kg orally 60 min before test
# [21] = 64 mg/kg orally 60 min before test
# [22] = 128 mg/kg orally 60 min before test
smiles,measurement,setting,value
"CC1CC(c2ccccc2)C(c2ccccc2)C(=O)O1 (centres unmarked) [MDTP, 6-methyl-3,4-diphenyl-3,4,5,6-tetrahydro-2-pyrone]",change in conditioned inhibition,"mouse [1]; mouse, 4, 8, 16, 32, 64 and 128 mg/kg",no change was observed in conditioned inhibition
same,performance of the animals in 4 plate test,"mouse [1]; mouse, 4 to 128 mg/kg",a slight increase in the performance of the animals
same,LD50,"[2]; ip, intraperitoneal",> 300 mg/kg
same,LD50,[2]; oral,> 300 mg/kg
same,ratio LD50/ED 50,rat [3],over 10/1
same,change in time to fall asleep and sleeping period,rat [4],did not produce any change in the time taken to fall asleep or in the sleeping period
same,"signs of sympathetic excitation, sleep preventing action",animals [5]; in vivo,"does not give rise to any signs of sympathetic excitation, any sleep preventing action"
same,sleep inhibiting effect,animals [5]; in vivo,does not have any sleep inhibiting effect
same,duration of increase in activity and alertness,"animals [5]; oral, rat and mouse",about 2 hours
same,minimal effective dose,"animals [5]; po, read-out: doses from which increase in activity and alertness is marked",16 to 32 mg/kg
same,change in reserpine-induced hypothermia or palpebral ptosis,rats [6],did not produce any change in the hypothermia or palpebral ptosis
same,Number of bars passed over after 5 min,rat [7]; [15],131 % of control group
same,Number of bars passed over after 10 min,rat [7]; [15],135 % of control group
same,Number of bars passed over after 15 min,rat [7]; [15],148 % of control group
same,Number of bars passed over after 20 min,rat [7]; [15],145 % of control group
same,Number of bars passed over after 25 min,rat [7]; [15],144 % of control group
same,Number of bars passed over after 30 min,rat [7]; [15],133 % of control group
same,Number of bars passed over after 5 min,rat [7]; [16],186 % of control group
same,Number of bars passed over after 10 min,rat [7]; [16],184 % of control group
same,Number of bars passed over after 15 min,rat [7]; [16],135 % of control group
same,Number of bars passed over after 20 min,rat [7]; [16],138 % of control group
same,Number of bars passed over after 25 min,rat [7]; [16],155 % of control group
same,Number of bars passed over after 30 min,rat [7]; [16],161 % of control group
same,Number of bars passed over after 5 min,rat [7]; [17],155 % of control group
same,Number of bars passed over after 10 min,rat [7]; [17],181 % of control group
same,Number of bars passed over after 15 min,rat [7]; [17],178 % of control group
same,Number of bars passed over after 20 min,rat [7]; [17],200 % of control group
same,Number of bars passed over after 25 min,rat [7]; [17],186 % of control group
same,Number of bars passed over after 30 min,rat [7]; [17],195 % of control group
same,Number of bars passed over after 5 min,rat [7]; [18],210 % of control group
same,Number of bars passed over after 10 min,rat [7]; [18],215 % of control group
same,Number of bars passed over after 15 min,rat [7]; [18],209 % of control group
same,Number of bars passed over after 20 min,rat [7]; [18],217 % of control group
same,Number of bars passed over after 25 min,rat [7]; [18],215 % of control group
same,Number of bars passed over after 30 min,rat [7]; [18],201 % of control group
same,minimal effective dose,"rat [7]; oral, read-out: dose from which increase in motor activity becomes significant",32 mg/kg
same,change in avoidance conditioning,rat [8],did not produce any change in conditioning
same,change in apomorphine-induced stereotyped movements,rat [9],did not bring about any change in the sterotyped movements
same,change in cataleptic state,rats [10],did not produce any change in the cataleptic state
same,motor activity relative to the control group,mouse [11]; 15 min pretreatment,221%
same,motor activity relative to the control group,mouse [11]; 30 min pretreatment,192%
same,motor activity relative to the control group,mouse [11]; 60 min pretreatment,161%
same,motor activity relative to the control group,mouse [11]; 120 min pretreatment,136%
same,"Number of bars passed over by mice, 150 to 180 min","mouse [11]; 128 mg/kg orally, control group 8",25
same,"Number of bars passed over by mice, 60 to 90 min","mouse [11]; 128 mg/kg orally, control group 12",244
same,"Number of bars passed over by mice, 120 to 150 min","mouse [11]; 128 mg/kg orally, control group 14",66
same,"Number of bars passed over by mice, 90 to 120 min","mouse [11]; 128 mg/kg orally, control group 15",99
same,"Number of bars passed over by mice, 30 to 60 min","mouse [11]; 128 mg/kg orally, control group 82",428
same,"Number of bars passed over by mice, 0 to 30 min","mouse [11]; 128 mg/kg orally, control group 390",846
same,minimal effective dose,"mouse [11]; 0.5 h, mouse, oral, 30 min before actograph, read-out: dose from which increase in motor activity becomes significant",32 mg/kg
same,dose dependence of increase in motor activity,"mouse [11]; mouse, oral, 30 min before actograph",proportional to the dose administered
same,change in amphetamine-induced stereotyped movements,rat [12],did not bring about any change in the stereotyped movements
same,change in time to fall asleep and sleeping period,mouse [13],did not produce any change in the time taken to fall asleep or in the sleeping period
same,displacements made in 5 min,animals [14]; [19],98 % of control group
same,holes explored in 5 min,animals [14]; [19],120 % of control group
same,displacements made in 5 min,animals [14]; [20],115 % of control group
same,holes explored in 5 min,animals [14]; [20],131 % of control group
same,displacements made in 5 min,animals [14]; [21],161 % of control group
same,holes explored in 5 min,animals [14]; [21],140 % of control group
same,displacements made in 5 min,animals [14]; [22],159 % of control group
same,holes explored in 5 min,animals [14]; [22],141 % of control group
same,minimal effective dose,"animals [14]; oral, read-out: dose from which increase in number of holes explored becomes significant",32 mg/kg
